Measured values as given in patent US11053235B2, “Substituted 1,4-dihydropyrimidines for the treatment of HBV infection or HBV-induced diseases” (Janssen Sciences Ireland Unlimited Company, priority 2018, dated 2021).
pEC50: −log10 of the molar value. Read-outs that look alike come from different tables or passages of the source.

Columns and labels:
Assay type in all cases: cell-based
HBV = experiment: Anti-viral assay in HepG2.2.15 cells: HBV inhibitory activity (HBV DNA in culture medium by q-PCR); conditions: HepG2.2.15 cells, 6 days treatment, HBV DNA in culture medium by q-PCR, highest concentration 10 uM, read-out: EC50
How it was run: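 HepG2.2.15 cells seeded at 40,000/well in 2% FBS medium, dosed next day for 6 days (medium refreshed once midway); 8-point 3-fold dilutions from 10 uM top. HBV DNA in culture medium extracted and quantified by q-PCR; EC50 calculated from dose-response.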

HepG2.2.15 cells = experiment: Cytotoxicity determination in HepG2.2.15 cells (CCK-8); conditions: 6 days treatment, CCK-8, highest concentration 100 uM
How it was run: (§1)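 HepG2.2.15 cells seeded at 5,000 cells/well in 2% FBS medium and exposed to compounds for 6 days (medium refreshed once), 8 three-fold dilutions from 100 uM. Viability read by CCK-8 after 2.5 h at 37 °C, absorbance 450 nm with 630 nm reference; CC50 calculated.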

[1] = as above; conditions: human, 6 days treatment, CCK-8, highest concentration 100 uM
How it was run: as §1

[2] = Hepatitis B virus, HepG2.2.15, 144 h

`CCOC(=O)C1=C(C2CC=C(c3nc(C(=O)O)co3)CC2)NC(c2nccs2)=NC1c1ccc(F)c(F)c1Cl` (single isomer, unassigned) [Compound I-13-D, 2-(4-(6-(2-chloro-3,4-difluorophenyl)-5-(ethoxycarbonyl)-2-(thiazol-2-yl)-3,6-dihydropyrimidin-4-yl)cyclohex-1-en-1-yl)oxazole-4-carboxylic Acid] showed a pEC50 (HBV) of 8.49 and a CC50 (HepG2.2.15 cells) of 6090 nM.
Work on `CCOC(=O)C1=C(C2CCC(c3cnn(C(C)CC(=O)O)c3)CC2)NC(c2nccs2)=NC1c1ccc(F)c(F)c1Cl` (stereo not shown) [Compound I-31, 3-(4-(4-(6-(2-Chloro-3,4-difluorophenyl)-5-(ethoxycarbonyl)-2-(thiazol-2-yl)-3,6-dihydropyrimidin-4-yl)cyclohexyl)-1H-pyrazol-1-yl)butanoic Acid] yielded a pEC50 (HBV; [2]) of 7.23 and a CC50 at 6 days [1] of 3780 nM.
With `CCOC(=O)C1=C(C2CCC(c3cnn(C4CC(C(=O)O)C4)c3)CC2)NC(c2nccs2)=NC1c1ccc(F)c(F)c1Cl` (stereo not shown) [Compound I-34, 3-(4-(4-(6-(2-Chloro-3,4-difluorophenyl)-5-(ethoxycarbonyl)-2-(thiazol-2-yl)-3,6-dihydropyrimidin-4-yl)cyclohexyl)-1H-pyrazol-1-yl)cyclobutanecarboxylic acid] the pEC50 (HBV; [2]) was 7.26 and the CC50 at 6 days [1] was 2790 nM.
In the case of `CCOC(=O)C1=C([C@H]2CC[C@H](c3nc(C(=O)O)no3)CC2)NC(c2nccs2)=NC1c1ccc(F)c(F)c1Cl` (stereo partly drawn) [Compound I-45, (trans)-5-(-4-(6-(2-Chloro-3,4-difluorophenyl)-5-(ethoxycarbonyl)-2-(thiazol-2-yl)-3,6-dihydropyrimidin-4-yl)cyclohexyl)-1,2,4-oxadiazole-3-carboxylic Acid], the pEC50 (HBV; [2]) was 7.15 and the CC50 at 6 days [1] was 16800 nM.
Work on `CCOC(=O)C1=C(C2CCN(c3ncc(C(=O)O)cn3)C(C)C2)NC(c2nccs2)=NC1c1ccc(F)c(F)c1Cl` (stereo not shown) [II-34-F, 2-(4-(6-(2-chloro-3,4-difluorophenyl)-5-(ethoxycarbonyl)-2-(thiazol-2-yl)-3,6-dihydropyrimidin-4-yl)-2-methylpiperidin-1-yl)pyrimidine-5-carboxylic acid] yielded a pEC50 (HBV; [2]) greater than 8.34 and a CC50 at 6 days [1] of 7960 nM.
